Calls of active or inactive are those of the source. The rule behind the calls is not given here.
How the values were obtained:
4T1 [1] = assay: Potency index, ratio of IC50 for lonidamine to test compound IC50 for mouse 4T1 cells assessed as cell growth inhibition measured for 72 hrs by MTT assay; format: functional
[2] = target: T1, Hexokinase-2 (Homo sapiens) (UniProt P52789); assay: Induction of HK2 degradation in human MDA-MB-231 cells assessed as increase in VDAC expression at 20 uM measured for 36 hrs by Western blot analysis; format: cell-based
T1 sequence (whole entry): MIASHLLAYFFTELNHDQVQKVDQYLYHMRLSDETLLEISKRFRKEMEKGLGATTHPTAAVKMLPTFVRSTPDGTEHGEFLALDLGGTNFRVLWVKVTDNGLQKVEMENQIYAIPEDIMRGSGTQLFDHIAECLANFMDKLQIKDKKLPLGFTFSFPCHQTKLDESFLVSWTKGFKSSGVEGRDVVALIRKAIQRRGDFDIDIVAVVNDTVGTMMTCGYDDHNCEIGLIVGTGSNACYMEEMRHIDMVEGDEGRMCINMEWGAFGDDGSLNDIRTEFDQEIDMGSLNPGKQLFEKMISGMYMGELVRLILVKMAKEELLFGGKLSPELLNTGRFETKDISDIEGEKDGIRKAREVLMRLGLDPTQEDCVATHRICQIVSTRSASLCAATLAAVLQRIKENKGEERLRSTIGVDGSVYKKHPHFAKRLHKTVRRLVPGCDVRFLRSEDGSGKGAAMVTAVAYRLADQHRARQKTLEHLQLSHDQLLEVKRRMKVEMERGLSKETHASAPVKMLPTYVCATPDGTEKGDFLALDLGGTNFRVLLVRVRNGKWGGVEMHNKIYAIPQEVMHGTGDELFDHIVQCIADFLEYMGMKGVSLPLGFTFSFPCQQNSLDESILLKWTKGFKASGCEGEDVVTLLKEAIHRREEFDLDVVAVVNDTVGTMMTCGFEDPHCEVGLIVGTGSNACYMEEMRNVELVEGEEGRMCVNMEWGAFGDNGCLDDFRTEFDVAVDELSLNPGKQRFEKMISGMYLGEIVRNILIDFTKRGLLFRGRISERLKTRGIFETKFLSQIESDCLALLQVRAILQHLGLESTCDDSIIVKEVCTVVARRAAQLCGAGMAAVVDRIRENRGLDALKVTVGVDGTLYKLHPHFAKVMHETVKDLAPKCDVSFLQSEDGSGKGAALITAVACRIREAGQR

[3] = Toxicity in BALB/c mouse implanted with mouse 4T1 cells assessed as pathological changes in kidney at 50 mg/kg, ip measured after 25 days in presence of cisplatin by Hematoxylin -eosin staining based analysis; format: organism-based; settings: in vivo, 600 h, time 25 day
MCF7 = assay: Antiproliferative activity against human MCF7 cells assessed as cell growth inhibition measured for 72 hrs by MTT assay; format: functional, cell-based; settings: MCF7, 72 h
[4] = Toxicity in BALB/c mouse implanted with mouse 4T1 cells assessed as effect on hematocrit level at 50 mg/kg, ip measured after 25 days by routine blood test; format: organism-based; settings: in vivo, 600 h, time 25 day
[5] = Toxicity in BALB/c mouse implanted with mouse 4T1 cells assessed as effect on platelet count at 50 mg/kg, ip measured after 25 days in presence of cisplatin by routine blood test; format: organism-based; settings: in vivo, 600 h, time 25 day
4T1 [6] = assay: Antitumor immunity against mouse 4T1 cells implanted in BALB/c mouse model assessed as reduction tumor cell proliferation at 50 mg/kg, ip measured after 25 days by Ki67 staining based analysis; format: functional, organism-based; settings: time 25.0 day
[7] = Cytotoxicity against human HUVEC-T1 cell assessed as inhibition of cell growth at 1 to 100 uM incubated for 48 hrs by CCK-8 assay; format: toxicity, cell-based; settings: dose 1-100 µM
4T1 [8] = assay: Antitumor immunity against mouse 4T1 cells implanted in BALB/c mouse model assessed as increase in N-terminal GSDME expression in tumor; format: functional, cell-based
4T1 [9] = assay: Induction of pyroptosis in mouse 4T1 cells assessed as increase in full length GSDME level at 20 uM incubated for 36 hrs; format: functional, cell-based
[10] = Toxicity in BALB/c mouse implanted with mouse 4T1 cells assessed as effect on red blood cells at 50 mg/kg, ip measured after 25 days in presence of cisplatin by routine blood test; format: organism-based; settings: in vivo, 600 h, time 25 day
[11] = target: T2, Hexokinase-2 (Mus musculus) (UniProt O08528); assay: Induction of HK2 degradation in mouse 4T1 cells at 20 uM measured for 36 hrs by Western blot analysis relative to control; format: cell-based
T2 sequence (whole entry): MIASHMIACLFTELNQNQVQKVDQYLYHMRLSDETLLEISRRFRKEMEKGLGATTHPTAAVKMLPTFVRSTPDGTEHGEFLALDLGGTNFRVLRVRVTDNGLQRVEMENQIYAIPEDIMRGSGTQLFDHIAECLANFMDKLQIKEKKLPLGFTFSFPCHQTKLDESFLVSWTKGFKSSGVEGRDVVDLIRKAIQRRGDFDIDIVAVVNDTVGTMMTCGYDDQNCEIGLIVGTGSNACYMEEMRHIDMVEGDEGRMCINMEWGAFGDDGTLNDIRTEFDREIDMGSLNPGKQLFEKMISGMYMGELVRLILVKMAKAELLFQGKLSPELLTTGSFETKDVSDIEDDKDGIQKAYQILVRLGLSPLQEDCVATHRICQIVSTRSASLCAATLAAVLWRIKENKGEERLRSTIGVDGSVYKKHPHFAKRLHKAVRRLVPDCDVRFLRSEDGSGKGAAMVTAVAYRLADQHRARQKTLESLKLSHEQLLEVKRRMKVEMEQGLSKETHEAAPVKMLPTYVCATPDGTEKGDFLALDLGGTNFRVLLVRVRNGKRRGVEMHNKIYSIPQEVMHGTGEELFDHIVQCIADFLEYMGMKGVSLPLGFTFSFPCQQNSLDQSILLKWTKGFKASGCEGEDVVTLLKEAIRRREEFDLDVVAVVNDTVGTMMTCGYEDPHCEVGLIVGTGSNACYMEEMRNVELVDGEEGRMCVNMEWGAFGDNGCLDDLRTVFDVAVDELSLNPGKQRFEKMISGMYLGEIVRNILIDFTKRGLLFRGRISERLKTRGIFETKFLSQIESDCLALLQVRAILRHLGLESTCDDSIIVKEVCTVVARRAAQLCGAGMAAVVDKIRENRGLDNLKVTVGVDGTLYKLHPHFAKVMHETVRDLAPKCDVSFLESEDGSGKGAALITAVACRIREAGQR

[12] = target: Protein cereblon/Hexokinase-2 (Homo sapiens) (UniProt P52789+Q96SW2); assay: PROTAC activity at CRBN/HK2 in human MDA-MB-231 cells assessed as […] ternary complex formation at 10 uM incubated for 24 hrs; format: cell-based
4T1 [13] = assay: Antitumor immunity against mouse 4T1 cells implanted in BALB/c mouse model assessed as increase in HMGB1 release in tumor; format: functional, cell-based
Hexokinase-2 = target: T3, Hexokinase-2 (Homo sapiens, UniProt P52789); assay: (§1) Induction of HK2 degradation in human MDA-MB-231 cells measured for 36 hrs; format: cell-based
T3 sequence (P52789 whole entry): T1 sequence (whole entry)

[14] = target: T1, Hexokinase-2 (Homo sapiens); assay: as §1; format: cell-based
4T1 [15] = assay: Upregulation of PD-L1 expression in mouse 4T1 cells cytoplasm at 20 uM measured for 36 hrs; format: functional, subcellular

Protein cereblon/Hexokinase-2 (Homo sapiens), sequence (Q96SW2 whole entry, looked up, one chain of several): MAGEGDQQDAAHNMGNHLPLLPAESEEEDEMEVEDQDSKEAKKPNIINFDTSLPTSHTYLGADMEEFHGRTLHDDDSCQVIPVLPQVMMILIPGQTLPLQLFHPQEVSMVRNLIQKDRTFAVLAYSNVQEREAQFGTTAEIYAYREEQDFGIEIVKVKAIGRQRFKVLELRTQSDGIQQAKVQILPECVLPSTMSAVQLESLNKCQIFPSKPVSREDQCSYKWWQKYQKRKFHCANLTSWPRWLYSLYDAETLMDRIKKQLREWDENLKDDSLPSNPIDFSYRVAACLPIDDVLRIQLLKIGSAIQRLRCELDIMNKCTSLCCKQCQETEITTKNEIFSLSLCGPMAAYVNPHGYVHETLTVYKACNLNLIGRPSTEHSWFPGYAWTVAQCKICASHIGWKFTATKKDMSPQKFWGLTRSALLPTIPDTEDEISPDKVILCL

O=C1CCC(N2C(=O)c3cccc(NCCCCNC(=O)c4nn(Cc5ccc(Cl)cc5Cl)c5ccccc45)c3C2=O)C(=O)N1 (configuration not stated)
Ratio IC50 (4T1 [1]): 30.1
Activity [2]: Active
Activity [3]: Non-Toxic
IC50 (MCF7): 21.7 µM
Activity [4]: Non-Toxic
Activity [5]: Non-Toxic
Activity (4T1 [6]): Active
Activity [7]: Toxic
Activity (4T1 [8]): Active
Activity (4T1 [9]): Active
Activity [10]: Non-Toxic
Activity [11]: 71.1%
Activity [12]: Active
Activity (4T1 [13]): Active
DC50 (Hexokinase-2): 0.79 µM
Activity [14]: Dose-Dependent Effect
Activity (4T1 [15]): Active

From ChEMBL document CHEMBL5331124, “Degradation of Hexokinase 2 Blocks Glycolysis and Induces GSDME-Dependent Pyroptosis to Amplify Immunogenic Cell Death for Breast Cancer Therapy” (J Med Chem, 2023)
